Results from ChEMBL document CHEMBL4483862, “Open-source discovery of chemical leads for next-generation chemoprotective antimalarials” (2018).
pIC50: −log10 of the molar value.

System: Plasmodium berghei
Assay: Luciferase/luciferin-expressing antifolate-resistant parasites were used to infect a culture of HepG2 cells that were pre-incubated with compounds. Infected hepatocytes emit light due to the luciferase reaction. Assay results are presented as the percent inhibition of light emission compared to control. […]
Assay type: functional
Conditions: sporozoite; for IC90: read-out: LUCIFERASE INFECTION ASSAY - IC90

Compound	IC90 [µM]	also measured
Cc1ccc(-c2cs/c(=N\c3cccnc3)n2CCCn2ccnc2)cc1C	> 10	pIC50 (HEPG2TOX_HILL_SLOPE 0.267, HEPG2TOX_R_SQUARED 0.885, PBLUC_HILL_SLOPE 2.25, PBLUC_R_SQUARED 0.462, read-out: LUCIFERASE INFECTION ASSAY - IC50): 5.26
CN1CCN(C(=O)c2ccc(-c3cnc4cnc(/C=C/c5ccccc5)cn34)cc2)CC1	> 7.79	pIC50 (HEPG2TOX_HILL_SLOPE 0.285, HEPG2TOX_R_SQUARED 0.311, PBLUC_HILL_SLOPE 1.14, PBLUC_R_SQUARED 0.7, read-out: LUCIFERASE INFECTION ASSAY - IC50): 5.51
Cc1ccc(Nc2ccc(S(=O)(=O)NC3=NCCCCC3)cc2[N+](=O)[O-])cc1	> 10	pIC50 (HEPG2TOX_HILL_SLOPE 0.294, HEPG2TOX_R_SQUARED 0.717, PBLUC_HILL_SLOPE 0.103, PBLUC_R_SQUARED 0.0204, read-out: LUCIFERASE INFECTION ASSAY - IC50): < 5.00
N=C1C(c2nc(-c3ccccc3)cs2)C(=O)CN1c1ccc2c(c1)OCCO2 (configuration not stated)	> 8.43	pIC50 (HEPG2TOX_HILL_SLOPE 0.297, HEPG2TOX_R_SQUARED 0.47, PBLUC_HILL_SLOPE 1.65, PBLUC_R_SQUARED 0.172, read-out: LUCIFERASE INFECTION ASSAY - IC50): < 5.07
Cc1ccc(O)c(C(=O)NCCC(C)C)c1	> 10	pIC50 (HEPG2TOX_HILL_SLOPE 0.253, HEPG2TOX_R_SQUARED 0.657, PBLUC_HILL_SLOPE 0.85, PBLUC_R_SQUARED 0.659, read-out: LUCIFERASE INFECTION ASSAY - IC50): 5.63
O=C(Nc1ccc2nc(-c3ccccc3Cl)[nH]c2c1)c1ccc(=O)[nH]n1	4.84	pIC50 (HEPG2TOX_HILL_SLOPE 0.281, HEPG2TOX_R_SQUARED 0.366, PBLUC_HILL_SLOPE 7.23, PBLUC_R_SQUARED 0.542, read-out: LUCIFERASE INFECTION ASSAY - IC50): 5.45
Cc1ccc(C)c(S(=O)(=O)Oc2ccccc2C(=O)OCC(=O)c2c(C)[nH]c3ccccc23)c1	> 10	pIC50 (HEPG2TOX_HILL_SLOPE 0.276, HEPG2TOX_R_SQUARED 0.379, PBLUC_HILL_SLOPE 12.5, PBLUC_R_SQUARED 0.167, read-out: LUCIFERASE INFECTION ASSAY - IC50): < 5.00
COc1ccc(-c2nnc3ccc(-c4ccc5ncccc5c4)cn23)cc1OC	0.0668	pIC50 (HEPG2TOX_HILL_SLOPE 0.239, HEPG2TOX_R_SQUARED 0.342, PBLUC_HILL_SLOPE 2.22, PBLUC_R_SQUARED 0.642, read-out: LUCIFERASE INFECTION ASSAY - IC50): 7.61
NC(=O)c1cc(S(=O)(=O)N2CCCC2)ccc1OCc1nc2ccccc2s1	> 10	pIC50 (HEPG2TOX_HILL_SLOPE 0.311, HEPG2TOX_R_SQUARED 0.0458, PBLUC_HILL_SLOPE 3.01, PBLUC_R_SQUARED 0.0562, read-out: LUCIFERASE INFECTION ASSAY - IC50): 5.10
FC(F)(F)Oc1cccc(-c2nc3ccnc(NCc4ccccn4)c3[nH]2)c1	> 10	pIC50 (HEPG2TOX_HILL_SLOPE 0.276, HEPG2TOX_R_SQUARED 0.811, PBLUC_HILL_SLOPE 0.809, PBLUC_R_SQUARED 0.487, read-out: LUCIFERASE INFECTION ASSAY - IC50): 5.69
CCCn1nc(C(=O)Nc2ccccc2N2CCc3ccccc3C2)ccc1=O	> 10	pIC50 (HEPG2TOX_HILL_SLOPE 0.246, HEPG2TOX_R_SQUARED 0.177, PBLUC_HILL_SLOPE 1.82, PBLUC_R_SQUARED 0.418, read-out: LUCIFERASE INFECTION ASSAY - IC50): 5.37
CC(CCc1ccccc1)Nc1ccc(S(N)(=O)=O)cc1[N+](=O)[O-] (configuration not stated)	> 10	pIC50 (HEPG2TOX_HILL_SLOPE 0.279, HEPG2TOX_R_SQUARED 0.54, PBLUC_HILL_SLOPE 1.88, PBLUC_R_SQUARED 0.412, read-out: LUCIFERASE INFECTION ASSAY - IC50): 5.06
O=S(=O)(c1ccccc1)c1nc(Nc2ccc(F)cc2F)sc1Cl	> 10	pIC50 (HEPG2TOX_HILL_SLOPE 0.283, HEPG2TOX_R_SQUARED 0.886, PBLUC_HILL_SLOPE 3.77, PBLUC_R_SQUARED 0.219, read-out: LUCIFERASE INFECTION ASSAY - IC50): 5.14
COc1ccc(CN2C(=O)N(CC(C)C)C3(CCN(CCCc4ccccc4)CC3)C2=O)cc1	4.86	pIC50 (HEPG2TOX_HILL_SLOPE 0.288, HEPG2TOX_R_SQUARED 0.281, PBLUC_HILL_SLOPE 3.96, PBLUC_R_SQUARED 0.368, read-out: LUCIFERASE INFECTION ASSAY - IC50): 5.55
Cc1csc2sc(COC(=O)Nc3ccccc3)c(C)c12	> 10.4	pIC50 (HEPG2TOX_HILL_SLOPE 0.302, HEPG2TOX_R_SQUARED 0.714, PBLUC_HILL_SLOPE 1.42, PBLUC_R_SQUARED 0.482, read-out: LUCIFERASE INFECTION ASSAY - IC50): 5.05
C=C1c2ccccc2N=C(SC(C)C(=O)Nc2ccccc2)N1C (configuration not stated)	6.88	pIC50 (HEPG2TOX_HILL_SLOPE 0.246, HEPG2TOX_R_SQUARED 0.527, PBLUC_HILL_SLOPE 4.19, PBLUC_R_SQUARED 0.571, read-out: LUCIFERASE INFECTION ASSAY - IC50): 5.39

Compound	IC90 [µM]	also measured
CCCCCC(=O)Nc1ccc(C2=Nn3c(Cc4cccc5ccccc45)nnc3SC2)cc1	> 10	pIC50 (HEPG2TOX_HILL_SLOPE 0.272, HEPG2TOX_R_SQUARED 0.219, PBLUC_HILL_SLOPE 1.92, PBLUC_R_SQUARED 0.644, read-out: LUCIFERASE INFECTION ASSAY - IC50): 5.15
Cc1ccc(/C=C2\CCc3c2nc2ccccc2c3C(=O)OCC#N)cc1	0.0147	pIC50 (HEPG2TOX_HILL_SLOPE 0.309, HEPG2TOX_R_SQUARED 0.18, PBLUC_HILL_SLOPE 16.5, PBLUC_R_SQUARED 0.242, read-out: LUCIFERASE INFECTION ASSAY - IC50): 7.89
CNc1ncnc(NNC(=O)Nc2ccccc2)c1[N+](=O)[O-]	> 10.9	pIC50 (HEPG2TOX_HILL_SLOPE 0.255, HEPG2TOX_R_SQUARED 0.589, PBLUC_HILL_SLOPE 1.34, PBLUC_R_SQUARED 0.392, read-out: LUCIFERASE INFECTION ASSAY - IC50): 5.22
O=C(COC(=O)c1c2c(nc3ccccc13)CCCC2)Nc1ccccc1	> 10	pIC50 (HEPG2TOX_HILL_SLOPE 0.267, HEPG2TOX_R_SQUARED 0.55, read-out: LUCIFERASE INFECTION ASSAY - IC50): < 5.00
N#C/C(C(=O)c1ccc([N+](=O)[O-])s1)=C1\Nc2ccccc2S1	> 10	pIC50 (HEPG2TOX_HILL_SLOPE 0.276, HEPG2TOX_R_SQUARED 0.471, PBLUC_HILL_SLOPE 0.885, PBLUC_R_SQUARED 0.549, read-out: LUCIFERASE INFECTION ASSAY - IC50): 6.02
CCOc1cc(/C=C/C(=O)c2cccs2)cc(Br)c1OC	> 10	pIC50 (HEPG2TOX_HILL_SLOPE 0.301, HEPG2TOX_R_SQUARED 0.1, PBLUC_HILL_SLOPE 0.921, PBLUC_R_SQUARED 0.199, read-out: LUCIFERASE INFECTION ASSAY - IC50): < 5.00
C(=C\c1cn2c(-c3cccnc3)cnc2cn1)/c1ccccc1	> 11.1	pIC50 (HEPG2TOX_HILL_SLOPE 0.303, HEPG2TOX_R_SQUARED 0.424, PBLUC_HILL_SLOPE 9.4, PBLUC_R_SQUARED 0.254, read-out: LUCIFERASE INFECTION ASSAY - IC50): 5.05
Cc1ccc(-n2c(Sc3ccc([N+](=O)[O-])c4cnccc34)nnc2-c2ccccc2)cc1C	> 10	pIC50 (HEPG2TOX_HILL_SLOPE 0.296, HEPG2TOX_R_SQUARED 0.243, PBLUC_HILL_SLOPE 1.34, PBLUC_R_SQUARED 0.0191, read-out: LUCIFERASE INFECTION ASSAY - IC50): < 5.00
CS(=O)(=O)Nc1cccc(-c2cnc(N)c(-c3cccc(C(F)(F)F)c3)c2)c1	0.0724	pIC50 (HEPG2TOX_HILL_SLOPE 0.275, HEPG2TOX_R_SQUARED 0.333, PBLUC_HILL_SLOPE 1.7, PBLUC_R_SQUARED 0.794, read-out: LUCIFERASE INFECTION ASSAY - IC50): 7.70
CC(Nc1ccc2c(c1)CCC2)C(=O)Nc1sccc1C(N)=O (configuration not stated)	1.74	pIC50 (HEPG2TOX_HILL_SLOPE 0.241, HEPG2TOX_R_SQUARED 0.874, PBLUC_HILL_SLOPE 11.9, PBLUC_R_SQUARED 0.588, read-out: LUCIFERASE INFECTION ASSAY - IC50): 5.84
O=C(Cn1cnc2sccc2c1=O)Nc1nc(-c2ccccn2)cs1	> 10	pIC50 (HEPG2TOX_HILL_SLOPE 0.285, HEPG2TOX_R_SQUARED 0.277, PBLUC_HILL_SLOPE 15.4, PBLUC_R_SQUARED 0.28, read-out: LUCIFERASE INFECTION ASSAY - IC50): 5.03
NS(=O)(=O)c1ccc(-n2ncc(Nc3ccc(F)cc3)c(Cl)c2=O)cc1	> 10	pIC50 (HEPG2TOX_HILL_SLOPE 0.263, HEPG2TOX_R_SQUARED 0.596, PBLUC_HILL_SLOPE 7.27, PBLUC_R_SQUARED 0.0377, read-out: LUCIFERASE INFECTION ASSAY - IC50): < 5.00
COc1ccccc1-n1c(SCCn2c([N+](=O)[O-])cnc2C)nc2sc3c(c2c1=O)CCCC3	4.01	pIC50 (HEPG2TOX_HILL_SLOPE 0.275, HEPG2TOX_R_SQUARED 0.775, PBLUC_HILL_SLOPE 12.8, PBLUC_R_SQUARED 0.595, read-out: LUCIFERASE INFECTION ASSAY - IC50): 5.47
Cc1sc2ncnc(SCC(=O)N3N=C4/C(=C/c5ccccc5)CCCC4C3c3ccccc3)c2c1C (configuration not stated)	> 10	pIC50 (HEPG2TOX_HILL_SLOPE 0.257, HEPG2TOX_R_SQUARED 0.0474, read-out: LUCIFERASE INFECTION ASSAY - IC50): < 5.00
Cc1nnc(NC(=O)c2cn(-c3ccccc3)nc2-c2ccccc2C)o1	0.255	pIC50 (HEPG2TOX_HILL_SLOPE 0.258, HEPG2TOX_R_SQUARED 0.871, PBLUC_HILL_SLOPE 2.72, PBLUC_R_SQUARED 0.839, read-out: LUCIFERASE INFECTION ASSAY - IC50): 6.94
